Measured values from patent publication US9028845B2, “Chimeric immunomodulatory compounds and methods of using the same-IV” (Dynavax Technologies Corporation, priority 2001, dated 2015).

Tests used:
human PBMCs = test: Human PBMC cytokine response assay (IFN-γ and IFN-α in cell-free medium by ELISA), with or without cPLGA; format: cell-based
mouse lung = test: Induction of immune-associated genes in the mouse lung after intranasal treatment (quantitative PCR); format: in vivo, BALB/c mice; conditions: 20 ug intranasal, 6 hrs; vs P-7 treated mice
Protocol: The genes evaluated included genes encoding cytokines, chemokines, cell surface molecules, transcription factors, metalloproteases, and other molecules. The study was performed at Northview Pacific Laboratories (Hercules, Calif.) with 6-8 week old female BALB/c mice from Jackson Labs (Bar Harbor, Me.). […] Therefore, at 6 hrs the lungs were harvested and snap-frozen in liquid nitrogen and stored at −80° C. for later use. Total RNA was isolated using RNeasy mini kits (Qiagen Inc., Valencia, Calif.). The RNA samples were DNAse-treated (Roche Diagnostics, Mannheim, Germany) and converted into cDNA using Superscript II Rnase H-Reverse Transcriptase (Invitrogen, Rockville Md.) as described in Scheerens et al., 2001, Eur. J. of Immunology 31:1465-74. The cDNA samples were pooled per group and in each pooled sample the expression of mRNA of 75 genes was measured using real-time quantitative PCR (ABI Prism 5700, Perkin Elmer Applied Biosystems) and syber green (Qiagen Inc.). In addition to the genes of interest, in each sample the mRNA expression of a housekeeping gene was measured (HPRT or ubiquitin). In order to correct for the amount of RNA in each sample, all data were calculated relative to the expression of the housekeeping gene.

mice = test: Serum cytokines (IL-12 p40, IL-6, TNF-α) after subcutaneous injection in mice; format: in vivo; conditions: 20 ug subcutaneous
Protocol: Blood was collected 2 hours later. For the LPS positive control group, mice were injected intraperitoneally with a 200 ul volume, and blood was collected 1.5 hours later (i.e., at the peak of LPS induced TNF-α activity). The blood was clotted and the serum was prepared and stored at −80° C. until assayed. Serum cytokines were assayed using Biosource cytoscreen kits for TNF-α and Pharmingen antibody pairs for mIL-6 and mIL-12. All samples were assayed in duplicate.

CD19+ B cells = test: Human B cell proliferation assay (3H-thymidine incorporation); conditions: B cells, 2 μg/ml, Experiment B
[1] = donor 28066, 20 ug/ml, 24 h, + PLGA = premixed with 100 μg/ml cPLGA
[2] = donor 28067, 20 ug/ml, 24 h, + PLGA = premixed with 100 μg/ml cPLGA
[3] = donor 28068, 20 ug/ml, 24 h, + PLGA = premixed with 100 μg/ml cPLGA
[4] = mean of donors 28065-28068, 20 ug/ml, 24 h, + PLGA = premixed with 100 μg/ml cPLGA
[5] = mean of donors 28185-28188, Table 15

“5′-TCGTCG-3′-HEG-5′-AACGTT-3′-HEG-5′-AGATGAT-3′ [Compound C-23]” showed an IFN-α (human PBMCs; Table 13, donor 28156) of 26 pg/mL, an IFN-γ (human PBMCs; Table 13, donor 28156) of 733 pg/mL and an IFN-α (human PBMCs; Table 13, donor 28157) of 235 pg/mL. The IFN-γ (human PBMCs; Table 13, donor 28157) was 576 pg/mL, the IFN-α (human PBMCs; Table 13, donor 28158) was 59 pg/mL and the IFN-γ (human PBMCs; Table 13, donor 28158) was 202 pg/mL. For the same substance, the IFN-α (human PBMCs; Table 13, donor 28159) was 169 pg/mL, the IFN-γ (human PBMCs; Table 13, donor 28159) was 295 pg/mL and the IFN-α mean (human PBMCs; Table 13, mean of donors) was 122 pg/mL. For the same substance, the IFN-γ mean (human PBMCs; Table 13, mean of donors) was 452 pg/mL, the “IFN-γ (pg/ml) 28065” value (human PBMCs; donor 28065 (high background), 20 ug/ml, 24 h, + PLGA = premixed with 100 μg/ml cPLGA, 1000 = outside assay limits) was 438 pg/mL and the “IFN-α (pg/ml) 28065” value (human PBMCs; donor 28065, 20 ug/ml, 24 h, + PLGA = premixed with 100 μg/ml cPLGA) was 52 pg/mL. For the same substance, the “IFN-α (pg/ml) 28066” value (human PBMCs; [1]) was 3 pg/mL, the “IFN-γ (pg/ml) 28066” value (human PBMCs; [1]) was 5 pg/mL and the “IFN-α (pg/ml) 28067” value (human PBMCs; [2]) was 19 pg/mL. For the same substance, the “IFN-γ (pg/ml) 28067” value (human PBMCs; [2]) was 6 pg/mL, the “IFN-α (pg/ml) 28068” value (human PBMCs; [3]) was 137 pg/mL and the “IFN-γ (pg/ml) 28068” value (human PBMCs; [3]) was 238 pg/mL. The “IFN-a” value (human PBMCs; donor 28185, Table 15) was 83 pg/mL, the “IFN-g” value (human PBMCs; donor 28185, Table 15) was 42 pg/mL and the “IFN-a” value (human PBMCs; donor 28186, Table 15) was 27 pg/mL. For the same substance, the “IFN-g” value (human PBMCs; donor 28186, Table 15) was 14 pg/mL, the “IFN-a” value (human PBMCs; donor 28187, Table 15) was 59 pg/mL and the “IFN-g” value (human PBMCs; donor 28187, Table 15) was 29 pg/mL. For the same substance, the “IFN-a” value (human PBMCs; donor 28188, Table 15) was 55 pg/mL, the “IFN-g” value (human PBMCs; donor 28188, Table 15) was 3 pg/mL and the “IFN-α (pg/ml) mean” value (human PBMCs; [4]) was 53 pg/mL. For the same substance, the “IFN-γ (pg/ml) mean” value (human PBMCs; [4]) was 172 pg/mL, the “IFN-a (pg/ml) mean” value (human PBMCs; [5]) was 56 pg/mL and the “IFN-g (pg/ml) mean” value (human PBMCs; [5]) was 22 pg/mL. The “IFN-a (pg/ml) ×2” value (human PBMCs; mean ×2, Table 15) was 112 pg/mL, the “IFN-g (pg/ml) ×4” value (human PBMCs; mean ×4, Table 15) was 88 pg/mL and the “mRNA expression of immune-associated genes in the lung, in words” value (mouse lung) was “potently induce the expression of a variety of genes”. The “potency in serum cytokine induction compared with other compounds, in words” value (mice) was “more potent than C-9 and P-6”, the “induction of serum IL-12 p40, IL-6 and TNF-α, in words” value (mice; blood 2 hours later) was “induced IL-12 p40, IL-6, and TNF-α” and the cpm1 (CD19+ B cells; donor 121) was 10628 cpm. For the same substance, the cpm2 (CD19+ B cells; donor 121) was 16221 cpm, the cpm3 (CD19+ B cells; donor 121) was 20087 cpm and the mean cpm (CD19+ B cells; donor 121 mean) was 15645 cpm. It also gave a cpm1 (CD19+ B cells; donor 194) of 8730 cpm, a cpm2 (CD19+ B cells; donor 194) of 6532 cpm and a cpm3 (CD19+ B cells; donor 194) of 9596 cpm. It also gave a mean cpm (CD19+ B cells; donor 194 mean) of 8286 cpm and a mean of both (CD19+ B cells; mean of donors 121 and 194) of 11966 cpm.
